From patent publication US9833497B2, “Human originated EGF domain proteins and use of the same” (CHENGDU SOURCEBIO LIMITED-LIABILITY COMPANY, priority 2013, dated 2017)

Assays:
Assay type in all cases: cell-based
E. coli DH5α = assay: Antibacterial activity: MIC and growth curve against E. coli DH5α in 96-well plate; conditions: minimal inhibitory concentration against E. coli DH5α; 96-well plate, 5×10^5 CFU/mL, 37° C., judged after 8 h
Procedure, shortened: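 Log-phase DH5α (OD600 about 0.5, 37° C, 185 rpm in LB) was pelleted, resuspended in fresh LB and seeded at 5×10^5 CFU/mL with recombinant protein at 50, 25 and 12.5 μg/mL (two-fold series), in triplicate. Plates were shaken at 175 rpm, 37° C, and OD600 was read every 30 min. MIC was the lowest concentration with no growth.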

Aeromonas hydrophila = assay: MIC against Gram-negative bacteria: Aeromonas hydrophila; conditions: 5×10^5 CFU/mL
Procedure, shortened: (§1)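 Broth microdilution, LB medium, final inoculum 5×10^5 CFU/mL from McFarland 0.5 cultures. Recombinant human EGF domain proteins tested in two-fold steps, n=3. MIC: lowest concentration, no growth.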

Proteus mirabilis = assay: MIC against Gram-negative bacteria: Proteus mirabilis; conditions: 5×10^5 CFU/mL
Procedure, shortened: as §1

Moraxella catarrhalis = assay: MIC against Gram-negative bacteria: Moraxella catarrhalis; conditions: 5×10^5 CFU/mL
Procedure, shortened: as §1

Citrobacter diversus = assay: MIC against Gram-negative bacteria: Citrobacter diversus; conditions: 5×10^5 CFU/mL
Procedure, shortened: as §1

E. coli BL21 = assay: MIC against Gram-negative bacteria: E. coli BL21; conditions: 5×10^5 CFU/mL
Procedure, shortened: as §1

Pseudomonas aeruginosa = assay: MIC against Gram-negative bacteria: Pseudomonas aeruginosa; conditions: 5×10^5 CFU/mL
Procedure, shortened: as §1

Klebsiella pneumonia = assay: MIC against Gram-negative bacteria: Klebsiella pneumonia; conditions: 5×10^5 CFU/mL
Procedure, shortened: as §1

Proteus vulgaris = assay: MIC against Gram-negative bacteria: Proteus vulgaris; conditions: 5×10^5 CFU/mL
Procedure, shortened: as §1

Enterobacter cloacae = assay: MIC against Gram-negative bacteria: Enterobacter cloacae; conditions: 5×10^5 CFU/mL
Procedure, shortened: as §1

Serratia marcescens = assay: MIC against Gram-negative bacteria: Serratia marcescens; conditions: 5×10^5 CFU/mL
Procedure, shortened: as §1

[1] = Aeromonas hydrophila, 10 h cultivation at 37° C.
[2] = Proteus mirabilis, 10 h cultivation at 37° C.
[3] = Moraxella catarrhalis, 10 h cultivation at 37° C.
[4] = Citrobacter diversus, 10 h cultivation at 37° C.
[5] = Pseudomonas aeruginosa, 10 h cultivation at 37° C.
[6] = Klebsiella pneumonia, 10 h cultivation at 37° C.
[7] = Proteus vulgaris, 10 h cultivation at 37° C.
[8] = Enterobacter cloacae, 10 h cultivation at 37° C.
[9] = Serratia marcescens, 10 h cultivation at 37° C.

PRT636 (DINECEHPGLCGPQGECLNTEGSFHCVCQQGFSISADGRTCE; listed as Homo sapiens)
25 µg/mL: MIC A. hydrophila (Aeromonas hydrophila; 96-well plate, 37° C., 10 h) | MIC M. catarrhalis (Moraxella catarrhalis; 96-well plate, 37° C., 10 h) | MIC E. coli BL21 (E. coli BL21; 96-well plate, 37° C., 10 h) | MIC K. pneumonia (Klebsiella pneumonia; 96-well plate, 37° C., 10 h) | MIC P. vulgaris (Proteus vulgaris; 96-well plate, 37° C., 10 h)
50 µg/mL: MIC C. diversus (Citrobacter diversus; 96-well plate, 37° C., 10 h) | MIC P. aeruginosa (Pseudomonas aeruginosa; 96-well plate, 37° C., 10 h) | MIC S. marcescens (Serratia marcescens; 96-well plate, 37° C., 10 h)
12.5 µg/mL: MIC (E. coli DH5α) | MIC P. mirabilis (Proteus mirabilis; 96-well plate, 37° C., 10 h) | MIC E. cloacae (Enterobacter cloacae; 96-well plate, 37° C., 10 h)

PRT1356 (KEQRCPSDCHGQGRCVDGQCICHEGFTGLDCG; listed as Homo sapiens)
25 µg/mL: MIC against A. hydrophila (Aeromonas hydrophila; [1]) | MIC against M. catarrhalis (Moraxella catarrhalis; [3]) | MIC against P. vulgaris (Proteus vulgaris; [7]) | MIC against E. cloacae (Enterobacter cloacae; [8])
50 µg/mL: MIC against P. mirabilis (Proteus mirabilis; [2]) | MIC against E. coli BL21 (E. coli BL21; 10 h cultivation at 37° C.) | MIC against K. pneumonia (Klebsiella pneumonia; [6])
12.5 µg/mL: MIC (E. coli DH5α) | MIC against C. diversus (Citrobacter diversus; [4]) | MIC against P. aeruginosa (Pseudomonas aeruginosa; [5]) | MIC against S. marcescens (Serratia marcescens; [9])

PRT138 (PCHNNATCEDSVDNYTCHCWPGYTGAQCE; listed as Homo sapiens)
25 µg/mL: MIC (μg/mL) A. hydrophila (Aeromonas hydrophila; Aeromonas hydrophila, 96-well plate, 37° C., 10 h) | MIC (μg/mL) K. pneumonia (Klebsiella pneumonia; Klebsiella pneumonia, 96-well plate, 37° C., 10 h) | MIC (μg/mL) S. marcescens (Serratia marcescens; Serratia marcescens, 96-well plate, 37° C., 10 h)
12.5 µg/mL: MIC (E. coli DH5α) | MIC (μg/mL) P. mirabilis (Proteus mirabilis; Proteus mirabilis, 96-well plate, 37° C., 10 h) | MIC (μg/mL) C. diversus (Citrobacter diversus; Citrobacter diversus, 96-well plate, 37° C., 10 h) | MIC (μg/mL) P. aeruginosa (Pseudomonas aeruginosa; Pseudomonas aeruginosa, 96-well plate, 37° C., 10 h) | MIC (μg/mL) P. vulgaris (Proteus vulgaris; Proteus vulgaris, 96-well plate, 37° C., 10 h)
100 µg/mL: MIC (μg/mL) M. catarrhalis (Moraxella catarrhalis; Moraxella catarrhalis, 96-well plate, 37° C., 10 h)
50 µg/mL: MIC (μg/mL) E. coli BL21 (E. coli BL21; 96-well plate, 37° C., 10 h) | MIC (μg/mL) E. cloacae (Enterobacter cloacae; Enterobacter cloacae, 96-well plate, 37° C., 10 h)

PRT1484 (DTDECLGTPCQQRCKNSIGSYKCSCRTGFHLHGNRHSCV; listed as Homo sapiens)
12.5 µg/mL: MIC against M. catarrhalis (Moraxella catarrhalis; [3]) | MIC against E. coli BL21 (E. coli BL21; 10 h cultivation at 37° C.) | MIC against K. pneumonia (Klebsiella pneumonia; [6]) | MIC against P. vulgaris (Proteus vulgaris; [7])
50 µg/mL: MIC (E. coli DH5α) | MIC against A. hydrophila (Aeromonas hydrophila; [1]) | MIC against P. mirabilis (Proteus mirabilis; [2]) | MIC against P. aeruginosa (Pseudomonas aeruginosa; [5]) | MIC against S. marcescens (Serratia marcescens; [9])
25 µg/mL: MIC against C. diversus (Citrobacter diversus; [4]) | MIC against E. cloacae (Enterobacter cloacae; [8])

PRT177 (GPGPCDGNPCANGGSCSETPRSFECTCPRGFYGLRCE; listed as Homo sapiens)
12.5 µg/mL: MIC (μg/mL) C. diversus (Citrobacter diversus; C. diversus, 10 h cultivation at 37° C.) | MIC (μg/mL) P. aeruginosa (Pseudomonas aeruginosa; P. aeruginosa, 10 h cultivation at 37° C.) | MIC (μg/mL) S. marcescens (Serratia marcescens; S. marcescens, 10 h cultivation at 37° C.)
25 µg/mL: MIC (μg/mL) A. hydrophila (Aeromonas hydrophila; A. hydrophila, 10 h cultivation at 37° C.) | MIC (μg/mL) M. catarrhalis (Moraxella catarrhalis; M. catarrhalis, 10 h cultivation at 37° C.) | MIC (μg/mL) E. coli BL21 (E. coli BL21; 10 h cultivation at 37° C.) | MIC (μg/mL) K. pneumonia (Klebsiella pneumonia; K. pneumonia, 10 h cultivation at 37° C.) | MIC (μg/mL) P. vulgaris (Proteus vulgaris; P. vulgaris, 10 h cultivation at 37° C.)
50 µg/mL: MIC (E. coli DH5α) | MIC (μg/mL) P. mirabilis (Proteus mirabilis; P. mirabilis, 10 h cultivation at 37° C.) | MIC (μg/mL) E. cloacae (Enterobacter cloacae; E. cloacae, 10 h cultivation at 37° C.)
